Like-named read-outs stand apart in the source and are kept apart here.
Tests used:
Aβ42 = experiment: In vivo efficacy: brain level of soluble Aβ42, non-transgenic rodents, single oral dose 30 mg/kg, 4 h, MSD electrochemiluminescence, untreated control = 100; parameters: species or system mouse; details: for response vs control in vivo at 10 mg/kg / response vs control in vivo at 30 mg/kg: Mus musculus, read-out: Aβ42 (% vs Ctrl) _Mean; for response vs control in vivo at 10 mg/kg: 10 mpk po; for Aβ42 (% vs Ctrl) _Mean: 30 mg/kg
Excerpt: (§1) To determine whether acute administration of an Aβ42 lowering agent would reduce Aβ42 levels in vivo, non-transgenic rodents, e.g. mice or rats were used. Animals treated with the Aβ42 lowering agent were examined and compared to those untreated or treated with vehicle and brain levels of soluble Aβ42, Aβ40, Aβ38, and Aβ37 were quantitated by Meso Scale Discovery's (MSD) electrochemiluminescence detection technology. Treatment periods varied from hours (h) to days and were adjusted based on the results of the Aβ42 lowering once a time course of onset of effect could be established.
(§2) A typical protocol for measuring Aβ42 lowering in vivo is shown but it is only one of many variations that could be used to optimize the levels of detectable Aβ. For example, Aβ42 lowering compounds were formulated in 20% of Captisol® (a sulfobutyl ether of β-cyclodextrin) in water or 20% hydroxypropyl β cyclodextrin. The Aβ42 lowering agents were administered as a single oral dose or by any acceptable route of administration to overnight fasted animals. After 4 h, the animals were sacrificed and Aβ42 levels were analysed.
(§3) Blood was collected by decapitation and exsanguinations in EDTA-treated collection tubes. Blood was centrifuged at 1900 g for 10 minutes (min) at 4° C. and the plasma recovered and flash frozen for later analysis. The brain was removed from the cranium and hindbrain. The cerebellum was removed and the left and right hemisphere were separated. The left hemisphere was stored at −18° C. for quantitative analysis of test compound levels. The right hemisphere was rinsed with phosphate-buffered saline (PBS) buffer and immediately frozen on dry ice and stored at −80° C. until homogenization for biochemical assays.
(§4) Mouse brains from non-transgenic animals were resuspended in 8 volumes of 0.4% DEA (diethylamine)/50 mM NaCl containing protease inhibitors (Roche-11873580001 or 04693159001) per gram of tissue, e.g. for 0.158 g brain, add 1.264 ml of 0.4% DEA. All samples were homogenized in the FastPrep-24 system (MP Biomedicals) using lysing matrix D (MPBio #6913-100) at 6 m/s for 20 seconds. Homogenates were centrifuged at 20800×g for 5 min and supernatants collected. Supernatants were centrifuged at 221.300×g for 50 min. The resulting high speed supernatants were then transferred to fresh eppendorf tubes. Nine parts of supernatant were neutralized with 1 part 0.5 M Tris-HCl pH 6.8 and used to quantify Aβ.
(§5) To quantify the amount of Aβ42, Aβ40, Aβ38, and Aβ37 in the soluble fraction of the brain homogenates, simultaneous specific detection of Aβ42, Aβ40, Aβ38, and Aβ37 was performed using MSD's electro-chemiluminescence multiplex detection technology. In this assay purified monoclonal antibodies specific for Abeta37 (JRD/Aβ37/3), Abeta38 (J&JPRD/Aβ38/5), Abeta40 (JRF/cAβ40/28), and Abeta42 (JRF/cAβ42/26) were coated on MSD 4-plex plates. Briefly, the standards (a dilution of synthetic Aβ42, Aβ40, Aβ38, and Aβ37) were prepared in 1.5 ml Eppendorf tube in Ultraculture, with final concentrations ranging from 10000 to 0.3 pg/m. The samples and standards were co-incubated with Sulfo-tag labelled JRF/rAß/2 antibody to the N-terminus of Aβ as detector antibody. 50 μl of conjugate/sample or conjugate/standards mixtures were then added to the antibody-coated plate. The plate was allowed to incubate overnight at 4° C. in order to allow formation of the antibody-amyloid complex. Following this incubation and subsequent wash steps the assay was finished by adding read buffer according to the manufacturer's instructions (Meso Scale Discovery, Gaitherburg, Md.).
(§6) The SULFO-TAG emits light upon electrochemical stimulation initiated at the electrode. MSD Sector instrument SI6000 was used for signal read-out.
In this model a Aß42 lowering compared to untreated animals would be advantageous, in particular a Aß42 lowering with at least 10%, more in particular a Aß42 lowering with at least 20%. […]

Aβ40 = experiment: In vivo efficacy: brain level of soluble Aβ40, non-transgenic rodents, single oral dose 30 mg/kg, 4 h, MSD electrochemiluminescence, untreated control = 100; parameters: species or system mouse; details: for response vs control in vivo at 10 mg/kg / response vs control in vivo at 30 mg/kg: Mus musculus, read-out: Aβ40 (% vs Ctrl) _Mean; for response vs control in vivo at 10 mg/kg: 10 mpk po
Excerpt: as §1, §2, §3, §4, §5
The SULFO-TAG emits light upon electrochemical stimulation initiated at the electrode. MSD Sector instrument SI6000 was used for signal read-out. […]

Aβ38 = experiment: In vivo efficacy: brain level of soluble Aβ38, non-transgenic rodents, single oral dose 30 mg/kg, 4 h, MSD electrochemiluminescence, untreated control = 100; parameters: species or system mouse; details: for response vs control in vivo at 10 mg/kg / response vs control in vivo at 30 mg/kg: Mus musculus, read-out: Aβ38 (% vs Ctrl) _Mean; for response vs control in vivo at 10 mg/kg: 10 mpk po; for Aβ38 (% vs Ctrl) _Mean: 30 mg/kg
Excerpt: To determine whether acute administration of an Aβ38 increasing agents would increase Aβ38 levels in vivo, non-transgenic rodents, e.g. mice or rats were used. Animals treated with the Aβ38 increasing agents were examined and compared to those untreated or treated with vehicle and brain levels of soluble Aβ42, Aβ40, Aβ38, and Aβ37 were quantitated by MSD electrochemiluminescence detection technology.
Treatment periods varied from hours (h) to days and were adjusted based on the results of the Aβ38 increase once a time course of onset of effect could be established.
as §2, with “measuring Aβ38 increase” for “measuring Aβ42 lowering”, “example, Aβ38 increasing agents” for “example, Aβ42 lowering compounds”, “The Aβ38 increasing” for “The Aβ42 lowering”, “and Aβ38” for “and Aβ42”
as §3, §4
as §5, with “[…].” for “pg/m.”
as §6
In this model a Aß38 increase compared to untreated animals would be advantageous, in particular a Aß38 increase with at least 10%, more in particular a Aß38 increase with at least 20%. […]

Cc1cn(-c2ccc3n(c2=O)CC(C)N(C(C)c2coc4cc(F)c(C(F)(F)F)cc24)C3=O)cn1 (single isomer, unassigned) [Compound 89]
response vs control in vivo at 10 mg/kg (Aβ42; po): 58%
response vs control in vivo at 10 mg/kg (Aβ40; po): 67%
response vs control in vivo at 10 mg/kg (Aβ38; po): 132%
melting point: 230 °C

Cc1cn(-c2ccc3n(c2=O)CCN(Cc2coc4ccc(C(F)(F)F)cc24)C3=O)cn1 [Compound 64]
response vs control in vivo at 30 mg/kg (Aβ42; sc, 30 mpk sc): 108%
response vs control in vivo at 30 mg/kg (Aβ40; sc, 30 mpk sc (footnote *)): 132%
response vs control in vivo at 30 mg/kg (Aβ38; sc, 30 mpk sc): 155%
melting point: 211 °C

Cc1cn(-c2ccc3n(c2=O)C[C@@H](C)N(Cc2coc4c(Cl)cc(Cl)cc24)C3=O)cn1 [Compound 74]
response vs control in vivo at 10 mg/kg (Aβ42; po): 83%
response vs control in vivo at 10 mg/kg (Aβ40; po): 100%
response vs control in vivo at 10 mg/kg (Aβ38; po): 144%
melting point: 202 °C

Cc1cn(-c2ccc3n(c2=O)C[C@@H](C)N(Cc2coc4cc(C(F)(F)F)c(F)cc24)C3=O)cn1 [Compound 85]
response vs control in vivo at 30 mg/kg (Aβ42; sc, 30 mpk sc): 51%
response vs control in vivo at 30 mg/kg (Aβ40; sc, 30 mpk sc (footnote *)): 69%
response vs control in vivo at 30 mg/kg (Aβ38; sc, 30 mpk sc): 194%
melting point: 226 °C

Cc1cn(-c2ccc3n(c2=O)C[C@@H](C)N(CC2(c4cc(OC5CC5)cc(C(F)(F)F)c4)CC2)C3=O)cn1 [Compound 53]
response vs control in vivo at 30 mg/kg (Aβ42; po, dose 30 mg/kg oral dosing): 120%
response vs control in vivo at 30 mg/kg (Aβ40; po, dose 30 mg/kg oral dosing): 121%
response vs control in vivo at 30 mg/kg (Aβ38; po, dose 30 mg/kg oral dosing): 124%

Cc1cn(-c2ccc3n(c2=O)C[C@@H](C)N(Cc2coc4ccc(C(F)(F)F)cc24)C3=O)cn1 [Compound 73]
response vs control in vivo at 30 mg/kg (Aβ42; sc, 30 mpk sc): 97%
response vs control in vivo at 30 mg/kg (Aβ40; sc, 30 mpk sc (footnote *)): 114%
response vs control in vivo at 30 mg/kg (Aβ38; sc, 30 mpk sc): 110%
melting point: 187 °C

Cc1cn(-c2ccc3n(c2=O)CC(C)N(C(C)c2cc(OC4CC4)cc(C(F)(F)F)c2)C3=O)cn1 (stereo not drawn) [Compound 48]
Aβ42 (% vs Ctrl) _Mean (Aβ42; dose 30 mg/kg oral dosing): 60 % vs Ctrl
response vs control in vivo at 30 mg/kg (Aβ40; po, dose 30 mg/kg oral dosing): 91%
Aβ38 (% vs Ctrl) _Mean (Aβ38; dose 30 mg/kg oral dosing): 161 % vs Ctrl

Cc1cn(-c2ccc3n(c2=O)CC(C)N(C(C)c2cc(OC4CC4)cc(C(F)(F)F)c2)C3=O)cn1 (stereo not drawn) [Compound 49]
Aβ42 (% vs Ctrl) _Mean (Aβ42; dose 30 mg/kg oral dosing): 85 % vs Ctrl
Aβ40 (% vs Ctrl) _Mean (Aβ40; dose 30 mg/kg oral dosing, 30 mg/kg): 101 % vs Ctrl
Aβ38 (% vs Ctrl) _Mean (Aβ38; dose 30 mg/kg oral dosing): 123 % vs Ctrl

Cc1cn(-c2ccc3n(c2=O)CCN(C(C)c2coc4cc(F)c(Cl)cc24)C3=O)cn1 (single isomer, unassigned) [Compound 61]
response vs control in vivo at 30 mg/kg (Aβ42; po, dose 30 mg/kg oral dosing): 86%
response vs control in vivo at 30 mg/kg (Aβ40; po, dose 30 mg/kg oral dosing): 90%
response vs control in vivo at 30 mg/kg (Aβ38; po, dose 30 mg/kg oral dosing): 192%
melting point: 231 °C

Cc1cn(-c2ccc3n(c2=O)C[C@@H](C)N(Cc2coc4cc(C(F)(F)F)ccc24)C3=O)cn1 [Compound 72]
response vs control in vivo at 30 mg/kg (Aβ42; po, dose 30 mg/kg oral dosing): 64%
response vs control in vivo at 30 mg/kg (Aβ40; po, dose 30 mg/kg oral dosing): 88%
response vs control in vivo at 30 mg/kg (Aβ38; po, dose 30 mg/kg oral dosing): 130%
melting point: 215 °C

Cc1cn(-c2ccc3n(c2=O)C[C@@H](C)N(Cc2cc4cc(Br)ccc4o2)C3=O)cn1 [Compound 13]
response vs control in vivo at 30 mg/kg (Aβ42; po, dose 30 mg/kg oral dosing): 77%
response vs control in vivo at 30 mg/kg (Aβ40; po, dose 30 mg/kg oral dosing): 101%
response vs control in vivo at 30 mg/kg (Aβ38; po, dose 30 mg/kg oral dosing): 117%
melting point: 159 °C

Cc1cn(-c2ccc3n(c2=O)C[C@@H](C)N(Cc2cc(OC4CC4)cc(C(F)(F)F)c2)C3=O)cn1 [Compound 33]
response vs control in vivo at 30 mg/kg (Aβ42; po, dose 30 mg/kg oral dosing): 57%
response vs control in vivo at 30 mg/kg (Aβ40; po, dose 30 mg/kg oral dosing): 79%
response vs control in vivo at 30 mg/kg (Aβ38; po, dose 30 mg/kg oral dosing): 132%

Cc1cn(-c2ccc3n(c2=O)CC(C)N(C(C)c2coc4ccc(C(F)(F)F)cc24)C3=O)cn1 (stereo not drawn) [Compound 79]
response vs control in vivo at 30 mg/kg (Aβ42; sc, 30 mpk sc): 54%
response vs control in vivo at 30 mg/kg (Aβ40; sc, 30 mpk sc (footnote *)): 62%
response vs control in vivo at 30 mg/kg (Aβ38; sc, 30 mpk sc): 175%

Cc1cn(-c2ccc3n(c2=O)CC(C)N(Cc2cc4c(s2)CCC(C(F)(F)F)C4)C3=O)cn1 (stereo not drawn) [Compound 34]
response vs control in vivo at 30 mg/kg (Aβ42; po, dose 30 mg/kg oral dosing): 104%
response vs control in vivo at 30 mg/kg (Aβ40; po, dose 30 mg/kg oral dosing): 128%
response vs control in vivo at 30 mg/kg (Aβ38; po, dose 30 mg/kg oral dosing): 102%

Cc1cn(-c2ccc3n(c2=O)C[C@@H](C)N(Cc2coc4cc(F)c(C(F)(F)F)cc24)C3=O)cn1 [Compound 84]
response vs control in vivo at 30 mg/kg (Aβ42; sc, 30 mpk sc): 25%
response vs control in vivo at 30 mg/kg (Aβ40; sc, 30 mpk sc (footnote *)): 21%
response vs control in vivo at 30 mg/kg (Aβ38; sc, 30 mpk sc): 237%
melting point: 222 °C

Cc1cn(-c2ccc3n(c2=O)C[C@@H](C)N(Cc2coc4ccc(OC(F)(F)F)cc24)C3=O)cn1 [Compound 83]
response vs control in vivo at 30 mg/kg (Aβ42; sc, 30 mpk sc): 40%
response vs control in vivo at 30 mg/kg (Aβ40; sc, 30 mpk sc (footnote *)): 41%
response vs control in vivo at 30 mg/kg (Aβ38; sc, 30 mpk sc): 166%

Reference: patent US10562897B2, “Substituted 3,4-dihydro-2H-pyrido[1,2-a]pyrazine-1,6-diones as gamma secretase modulators” (Janssen Pharmaceutica NV, priority 2014, dated 2020)
